How the values were obtained:
[1] = system: Aspergillus fumigatus FP1305; assay: Antimicrobial activity, serial broth dilution method (MEC); format: cell-based; settings: yeast nitrogen base dextrose medium, 37° C., 24 hours, microscopic observation
Method: (§1) Test 1 (Antimicrobial Activity) Antimicrobial activity of WF002 was determined by a serial broth dilution method using 96-well microtiter plate in 100 μl of yeast nitrogen base dextrose medium. The inoculum was adjusted to 1×10^5 colony forming units/ml. Candida albicans and Aspergillus fumigatus were cultured at 37° C. for 24 hours and Cryptococcus neoformans was cultured at 37° C. for 48 hours in 5% CO2 incubator. After incubation, the growth inhibition of microorganism in each well was determined by microscopic observation. The results were shown as MEC (minimum effective concentration: μg/ml) value (Table 2).

[2] = system: Candida albicans FP633; assay: as above; format: cell-based; settings: yeast nitrogen base dextrose medium, 37° C., 24 hours, microscopic observation
Method: as §1

[3] = system: Cryptococcus neoformans YC203; assay: as above; format: cell-based; settings: yeast nitrogen base dextrose medium, 37° C., 48 hours, 5% CO2, microscopic observation
Method: as §1

[4] = Solubility in solvents; format: physicochemical

Solubility ([4]; methanol, ethyl acetate, dimethylsulfoxide): Soluble
Solubility ([4]; water, n-hexane): Insoluble
SMILES: CC(=O)OC1CC2(C)C(CCC3(C)C2CCC2=C4C(=O)CC5C(C)COC(O)C45CCC23C)C(C)(C)C1OC1OC(CO)C(O)C(O)C1O (centres unmarked) [WF002]
MEC (minimum effective concentration) [1]: 0.04 µg/mL
MEC (minimum effective concentration) [2]: 6.25 µg/mL
MEC (minimum effective concentration) [3]: 50 µg/mL
